Read-outs that look alike come from different tables or passages of the source.
How the values were obtained:
[1] = Brightness comparison of micelle-formulated dyes and ICG in water, fetal bovine serum and sheep blood; format: physicochemical; conditions: dyes in micelles, ICG free
Excerpt: (§1) FIG. 21: Brightness comparisons in imaging configuration. a-c) Images upon 785 (33 mWcm^−2), 892 (54 mWcm^−2), and 968 (77 mWcm^−2) nm ex. and LP1000 nm detection (variable exposure time (ET) and frame rate) of capillaries containing equal moles of dyes 4-6, 9, 10 (lipid formulations) and benchmark dyes ICG (free) and MeOFlav7 (abbreviated MF7) (lipid formulation) when dissolved in water (a), fetal bovine serum (FBS) (b), or sheep blood (c). […] (e) and after injection of JuloChrom5 (10) (50 nmol) upon 982 nm (104 mWcm^−2) ex. (f). Collect: LP1000 nm, 2.0 ms ET, 150 fps (for 2-channel collection, see SI for images from all channels).
Next, to more closely approximate in vivo performance, each chromenylium or flavylium dye were formulated into water-soluble PEG-phospholipid micelles, a biocompatible nanomaterial for delivery. Brightness of solutions with equal dye concentration (flavylium and chromenylium dyes in micelles; ICG) were evaluated when dispersed in water (e.g., FIG. 20a), fetal bovine serum (FBS) (e.g., FIG. 20b), and sheep blood (e.g., FIG. 20c).
Results changed drastically compared to those in the organic solvent experiment, likely due to variable amounts of aggregation or interactions within the micelles and/or biological media. […]

[2] = Brightness comparison in organic solvent in the excitation-multiplexed SWIR imaging configuration; format: physicochemical; conditions: 0.25 μM, 785/892/968 nm excitation, 1000 nm LP
Excerpt: While photophysical characterization can be essential for understanding chromophore properties, when moving to an in vivo system, there are many additional parameters that might contribute to a dye's performance, including delivery strategy, interaction with biological tissues, and the excitation and detection parameters of the imaging configuration. To begin to understand the translation to in vivo experiments, an excitation-multiplexed SWIR imaging configuration was used to compare emission of the fluorophores when excited at relevant wavelengths. The imaging set-up includes excitation lasers that correspond to each channel (e.g., i-iv, FIG. 17a) (785, 892, and 968, 1065 nm) with irradiation scaled to the approved values, as outlined by the International Commission on Non-Ionizing Radiation Protection (ICNIRP) guidelines. The guidelines indicate that within the spectral region of interest (˜785 nm-1065 nm) higher photon doses are tolerated as the wavelength is increased. […] The excitation lasers are diffused and delivered uniformly to the biological sample. […]
To compare brightness of the chromenylium dyes in vitro, dyes 5, 6, 9 and 10 were dissolved in organic solvent (DCM) at 0.25 μM, and measured the emission, with 1000 nm longpass (LP) filtering on an InGaAs camera upon sequential excitation with 785, 892, and 968 nm lasers. […]

[3] = Two-color SWIR lymphatic imaging of a narcotized mouse (Example 2, Demonstration III); format: in vivo; conditions: injected intradermally into footpads and base of tail; after 30 min, 40 min
Excerpt: The FIGS. 9A, 9B and 9C show merged frames representing the lymphatic system of a narcotized mouse in two-color real-time acquisition. With detector exposure time of 20 ms, a frame rate of 21 fps is achieved with the developed system. […] Then, Julo 7 micelles have been injected intravenously. The lymphatic functional imaging is later enhanced by the assignment of two distinct colors.
Light Source (785 nm laser & 1064 nm laser sequentially triggered, pulse length=21 ms)→Collimator→Mirror→1100 nm Short-pass Filter→Engineered Diffuser→Sample. The arrows represent the light path. Accordingly, the light path has been set up as follows: from Light Source (785 nm laser & 1064 nm laser sequentially triggered, pulse length=21 ms) to Collimator to Mirror to 1100 nm Short-pass Filter to Engineered Diffuser to Sample.
Sample→3xf=500 mm C-Coated lenses→Silver Mirror→1000 nm Long-pass Filter→2xf=200 mm C-coated lenses→InGaAs Detector. The arrows represent the light path. Accordingly, the light path has been set up as follows: from Sample to 3xf=500 mm C-Coated lenses to Silver Mirror to 1000 nm Long-pass Filter to 2xf=200 mm C-coated lenses to InGaAs Detector.
Sample: ICG (aqueous, 13 nmol intradermally [footpads and base of tail]) and Julo7 (micelles, 70 nmol intravenously).

[4] = stated as established property; cited from earlier work
[5] = In vivo brightness comparison of JuloChrom5 (10) and ICG in a single mouse; set-up: species or system mice; conditions: compared to the PEG-coated micelles
Excerpt: as §1
To most closely assess the brightness performance for SWIR imaging, an in vivo comparative experiment between the highest performing chromenylium dye, JuloChrom5 (10) and ICG was designed. To note, while many SWIR imaging agents have been compared to the benchmark dye, ICG, these comparisons are often difficult due to the diverse photophysical and biological properties of different emitters. In this case, the in vivo comparison is complicated by differing biodistribution properties of the two dyes. […] Normalizing each acquisition to the injection start time, the signal over time over the whole mouse (yellow), a section of the vasculature (red), and the liver (black) were quantified. […]

[6] = Excitation-multiplexed SWIR imaging in mice, probe distribution (Example 9); format: in vivo; conditions: 80 minutes after i.p. 10 micelles and i.v. 3 micelles and ICG; top view
Excerpt: To perform excitation multiplexing in the SWIR, a custom SWIR imaging configuration with three lasers and an InGaAs detector was built (FIG. 13B). With laser lines at 785 nm, 980 nm, and 1064 nm, tailored excitation could uniquely excite three fluorophores. Emission is detected in a color-blind fashion using identical filters and settings in the SWIR, providing high-resolution images. To enable this process to occur in real-time, we constructed an electronic triggering system which is coupled to both the camera and laser excitation sources. […]
Physiological properties such as heart-rate, respiratory rate, thermoregulation, metabolism, and the function of the central nervous system, are highly impacted by anesthesia. […] Due to frame rates which are faster than macroscopic movements in animals, the heart rate and respiratory rate in awake animals can be quantified. […] The method allows physiology to be monitored with minimal perturbation of the animal's usual environment. […] The real-time collection can be visualized by observing close time-points in which a continuous movement is monitored without visual aberrations (FIG. 16A). In addition to assessing natural physiology, these tools foreshadow more complex experiments in which the location of multiple probes could be monitored over long periods of time, non-invasively and without the need for anesthesia. […]

[7] = value used as reference for relative measurements; cited from earlier work
[8] = value used as reference for relative measurements; cited from earlier work; remark: listed apart in the source

| Structure (SMILES) | change of brightness in FBS and blood compared to water [1] | SWIR brightness in water, FBS and blood ([1]; equal dye concentration) | ranking of SWIR emission per excitation channel [2] | conduction through the lymphatic vessels [3] | clearance of ICG [4] | hepatic clearance time [5] | location of probe in awake mouse [6] | ΦF of reference standard IR-26 [7] [%] | ΦF of reference standard IR-26 [8] [%] |
| --- | --- | --- | --- | --- | --- | --- | --- | --- | --- |
| CC1(C)C(/C=C/C=C/C=C/C=C2\N(CCCCS(=O)(=O)O)c3ccc4ccccc4c3C2(C)C)=[N+](CCCCS(=O)(=O)[O-])c2ccc3ccccc3c21 [ICG, indocyanine green] | increase in brightness | brightest SWIR emitter upon 785 nm excitation in both FBS and blood | best performers in channels i and ii | efficiently conducted through the lymphatic vessels | clears efficiently and exclusively from the liver | faster hepatic clearance time | exclusively in the liver | – | – |
| ClC1=C(/C=C/c2cc(-c3ccccc3)[s+]c3ccccc23)CCC/C1=C\C=C1/C=C(c2ccccc2)Sc2ccccc21.[O-][Cl+3]([O-])([O-])[O-] [IR-26] | – | – | – | – | – | – | – | 0.05 | 0.05 |

From patent US20220236187A1, “SYSTEM AND METHOD FOR REAL-TIME MULTICOLOR SHORTWAVE INFRARED FLUORESCENCE IMAGING” (HELMHOLTZ ZENTRUM MÜNCHEN - DEUTSCHES FORSCHUNGSZENTRUM FÜR …, priority 2019, published 2022)
